Assay results reported in US7521199B2, “Assay to identify estrogen receptor dependent ligands that regulate the hepatic lipase promoter” (Wyeth, priority 2000, dated 2009).
Like-named read-outs stand apart in the source and are kept apart here.

Tested on: human hepatic lipase (HL) promoter (−1557 to +43) regulated through human estrogen receptor
Test: Hepatic lipase promoter luciferase reporter assay in HepG2 cells cotransfected with human estrogen receptor and C/EBPα
Type: cell-based
Settings: for Efficacy (%), Hepatic Lipase Inhibition: relative to 100% effect of 17β-estradiol inhibition of HL activity
Description: Cell media was replaced every 2-3 days. Confluent cells were rinsed once with phosphate-buffered saline and 5 mL of a prewarmed solution comprised of about 0.05% trypsin, by volume, and about 0.5 mM ethylenediamine tetraacetic acid was added. Cells were left at room temperature for 5 minutes and cells were then dislodged from the flask by tapping the flask 50 times. Trypsinization was halted by the addition of about 8.5 mL of growth cell culture media. Cells were transferred to a test tube and centrifuged at about 300×g for about 5 minutes. Total cells were counted and resuspended at a concentration of about 1×10^7 cells/200 μL of growth cell culture media.
The mixture was transferred to a 0.2 mL BTX disposable cuvette (P/N 620). Cells were electroporated using a BTX ECM 600 (San Diego, Calif.), at 100 V, […] and 72 Ω. Cells were left a room temperature for about 20 minutes. Approximately 20.5 mL of growth cell culture media was added to the cells. Cells were then seeded at about 200 μL per well of a 96 well plate. Cells were then incubated at about 37° C. for 4 hours.
Media was aspirated and replaced with 200 μL deficient media, which was comprised of Phenol Red Free-DMEM (Gibco BRL) supplemented with 1%, by volume, glutamax; 1%, by volume, penicillin/strepomycin; 1%, by volume, non-essential amino acids; and 10%, by volume, heat inactivated, and charcoal-stripped fetal bovine serum, containing varying concentrations of estrogen test compounds. […]
After estrogen treatment, cells were washed with phosphate-buffered saline and lysed with Cell Culture Lysis Reagent (Promega; Madison, Wis.), 50 μL/well, by shaking the plate at room temperature for about 20 minutes. From each well, 35 μL of cell lysate was transferred to a 96 lumat plate. Luciferase activity was determined by addition of 100 μL luciferase substrate and emitted light was detected with a Dentate Microfluor WHT FB using the Luciferase Assay System (Promega; Madison, Wis.). β-galactosidase activity was determined by adding 10 μL of cell lysate and 100 μL β-galactosidase light emission buffer (Tropix; Bedford Mass.) to a lumat plate. β-galactosidase activity was determined with a Microlumat LB 96P (EG&G Berthold). Emitted light, for each assay, was detected for 10 seconds.
Data were collected and analyzed with the JMP statistical program. Background RLU values were subtracted from both the luciferase and β-gal values. The data were normalized by division of the corrected luciferase values by the corrected β-gal values. […] Mean and standard deviations were determined from at least two separate experiments with an n=4 for each experiment.
Luciferase activity was determined in cell lysates.

[1] = transfected HepG2 cells, 16-24 hours treatment
[2] = transfected HepG2 cells, 16-24 hours treatment, luciferase normalized to β-gal, read-out: IC50 (nM), Hepatic Lipase Inhibition

SMILES	Efficacy (%), Hepatic Lipase Inhibition [1]	IC50 [2]	IC50 (Homo sapiens, HepG2, read-out: IC50 (nM), Hepatic Lipase Inhibition)
C[C@]12CC[C@H]3C(=CCc4cc(O)ccc43)[C@@H]1CC[C@H]2O [17α-dihydroequilin]	89%	164 nM	–
C[C@]12CC[C@@H]3c4ccc(O)cc4CC[C@H]3[C@@H]1CC[C@H]2O [17α-estradiol]	69%	457 nM	–
C[C@]12CC[C@H]3C(=CCc4cc(O)ccc43)[C@@H]1CC[C@@H]2O [17β-dihydroequilin]	149%	469 nM	–
C[C@]12CC[C@@H]3c4ccc(O)cc4CC[C@H]3[C@@H]1CC[C@@H]2O [17β-estradiol]	100%	88 nM	–
C[C@]12CCC3=C(CCc4cc(O)ccc43)[C@@H]1CC[C@@H]2O [17β-Δ8,9-dehydroestradiol]	88%	12 nM	–
C[C@]12CCc3c(ccc4cc(O)ccc34)[C@@H]1CCC2=O [equilenin]	82%	–	38 nM
C[C@]12CCC3=C(CCc4cc(O)ccc43)[C@@H]1CCC2=O [Δ8,9-dehydroestrone]	93%	10 nM	–
